{
  "source": "patent USRE43688E1",
  "about": "(The Regents of the University of California, priority 2006, dated 2012)",
  "key": {"[1]": {"experiment": "Blood analysis of the monkey PET study (plasma parent and metabolites)", "format": "in vivo, Rhesus monkey", "description": "A blood analysis of the monkey PET study subsequent to administration of ^18F-mefway was performed to observe levels of breakdown in the blood similar to methods described for ^18F-fallypride. Venous whole blood (approx. 1 mL) was obtained at various time-points (5, 10, 15, 30, 45, 60, 90, 120, 150 and 180 min) during the course of the PET study. The samples were centrifuged in a Microfuge centrifuge (Eppendorf Centrifuge 5415C) at 12,000 rpm for 5 min. Plasma, 0.6 mL was separated from each sample and 0.1 mL was counted from each sample. […]. The remaining 0.5 mL of plasma at each time point was combined with 0.1 mL NaHCO3 and mixed well and subsequently extracted with 0.4 mL of ethyl acetate. The ethyl acetate was separated and 0.1 mL of ethyl acetate layer and 0.1 mL of aqueous layer were counted for analysis of ^18F-mefway in blood. […] The developed TLC plate was dried, apposed overnight to phosphor screen, and were read using the Phosphor Cyclone Imager (Packard Instruments Co., Boston Mass.). The amount of ^18F-mefway was evaluated in digital light units (DLU/mm^2) using Opti-Quant acquisition and analysis program (Packard Instruments Co.). All blood samples were counted for radioactivity in a Packard Gamma Counter 5000 series."}, "[2]": {"experiment": "Defluorination of ^18F-mefway in in vitro and in vivo experiments", "conditions": "numerous in vitro and in vivo experiments"}, "[3]": {"experiment": "Lipophilicity (log P) by partitioning between n-octanol and Tris-HCl buffer", "format": "physicochemical", "conditions": "n-octanol and 50 M Tris-HCl (pH 7.4) buffer", "description": "Lipophilicity (log P) was measured to evaluate lipid solubility of ^18F-mefway. The lipophilicity was measured by partitioning between n-octanol and […] Tris-HCl (pH 7.4) buffer. Into three tubes 2 mL of n-octanol and 2 mL of buffer were added and vortexed. To this mixture 370 kBq of ^18F-mefway was added. The mixture was again vortexed and allowed to settle. The layers were separated and the aqueous layer was centrifuged again to remove n-octanol contamination. An aliquot of both layers was counted for concentration of ^18F-mefway using the Cobra Quantum well counter (Packard Instruments Co., Boston, Mass.). Log P was taken as the concentration of ^18F-mefway in n-octanol over concentration of buffer."}, "5-HT1A receptors": {"biological_target": "T1, 5-HT1A receptors (Macaca mulatta, UniProt F7GIU0)", "T1 construct": "from tissue; host or cells: brain of a living anaesthetised Rhesus monkey (PET)", "T1 sequence (F7GIU0 1-421)": "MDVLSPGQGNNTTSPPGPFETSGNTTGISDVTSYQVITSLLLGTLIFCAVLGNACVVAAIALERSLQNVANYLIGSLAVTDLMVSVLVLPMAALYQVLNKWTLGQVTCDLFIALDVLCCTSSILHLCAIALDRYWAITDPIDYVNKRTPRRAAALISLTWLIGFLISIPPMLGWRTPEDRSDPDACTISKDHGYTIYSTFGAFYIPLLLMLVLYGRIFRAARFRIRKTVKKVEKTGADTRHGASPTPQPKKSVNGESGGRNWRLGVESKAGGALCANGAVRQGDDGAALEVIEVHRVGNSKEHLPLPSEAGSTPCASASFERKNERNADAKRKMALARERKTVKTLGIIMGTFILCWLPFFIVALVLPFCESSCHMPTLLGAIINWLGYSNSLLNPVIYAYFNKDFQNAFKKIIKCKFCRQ", "experiment": "Monkey PET study with ^18F-mefway", "format": "in vivo, Rhesus monkey", "description": "In vivo studies were performed in a Rhesus monkey. The monkey was anesthetized using ketamine (10 mg/kg) and xylazine (0.5 mg/kg) and maintained on 1-1.5% isoflurane. Two intravenous catheters were placed, one on each arm, for administration of the radiopharmaceutical and for obtaining blood samples during the study. Vital signs of the money were monitored carefully. […] The head of the animal was placed in the gantry of an ECAT EXACT HR+PET scanner and positioned in place with the use of adhesive tape. A transmission scan using a Ge-68/Ga-68 rod source was acquired prior to administration of the radiopharmaceutical to correct for tissue attenuation of the coincident radiation. A dynamic sequence of scans was acquired for 180 minutes after administration of 130 MBq of ^18F-Mefway intravenously (specific activity=74-111 GBq/μmol). Data in the final form were expressed in units of percent-injected dose/mL or kBq/mL. Areas showing maximal radioligand binding in the frontal cortex, temporal cortex, dorsal raphe and other braain regions were delineated in the images. The PET images were coregistered with an MRI image template of the rhesus monkey in order to provide anatomical detail as reported previously. This MRI template of the rhesus (Macaca mulatta) brain is an average of 6 monkeys with T1-weighted MR scans. PET image summed till 120 min duration was used for the coregistration. Coregistration of the PET-MR data was carried out by VINCI program (CPS Innovations, Inc.). Time activity curves were obtained for all of these regions."}, "5HT1A receptor [4]": {"biological_target": "T2, 5HT1A receptor (Rattus norvegicus, UniProt P19327)", "T2 construct": "from tissue; host or cells: 10 um horizontal brain slices of Sprague-Dawley rats", "T2 sequence (P19327 1-422)": "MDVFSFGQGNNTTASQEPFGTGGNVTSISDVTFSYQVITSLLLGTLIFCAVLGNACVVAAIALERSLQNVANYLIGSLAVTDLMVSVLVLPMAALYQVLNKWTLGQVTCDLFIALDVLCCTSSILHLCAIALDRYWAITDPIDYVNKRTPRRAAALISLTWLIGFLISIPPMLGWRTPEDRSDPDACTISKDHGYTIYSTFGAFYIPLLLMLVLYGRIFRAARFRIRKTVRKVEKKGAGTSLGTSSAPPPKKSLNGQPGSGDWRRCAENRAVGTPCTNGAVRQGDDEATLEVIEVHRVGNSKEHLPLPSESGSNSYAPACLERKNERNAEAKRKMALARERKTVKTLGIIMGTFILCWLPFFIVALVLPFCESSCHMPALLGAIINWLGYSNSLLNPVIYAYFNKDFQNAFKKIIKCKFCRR", "experiment": "Competitive binding assay in rat brain slices using ^18F-mefway as the radioligand (autoradiography)", "conditions": "167 kBq/mL ^18F-mefway, 37° C. 1 hour, measured autoradiographically in the hippocampus (FIG. 5), read-out: Binding affinity (IC50) against ^18F-mefway", "description": "In vitro binding affinity of mefway was measured in rat brain slices labeled with fluorine-18. The brains from Sprague-Dawley rats were extracted and frozen in isopentane at −20° C. Several 10 μm thick horizontal rat brain slices were pre-incubated at room temperature for 15 minutes in 50 mM Tris-HCl buffer (pH 7.4). […] After incubation slides were washed twice with cold buffer for one minute, dipped in cold water, air dried, and exposed to phosphor storage screens for 24 hours. Autoradiographs were generated using the Packard Phosphor Cyclone Imager, and the apposed phosphor screens were read by the Cyclone Storage Phosphor System. […] Binding affinity (IC50) was calculated using KELL program (BioSoft Inc)."}, "5HT1A receptor [5]": {"biological_target": "T2, 5HT1A receptor", "experiment": "Competition study of serotonin with ^18F-mefway in rat brain slices", "format": "binding", "description": "Male Sprague-Dawley rats (200-250 g) were anesthetized and decapitated, the brain was rapidly removed and frozen in isopentane at −20° C. Horizontal slices were cut 10 μm thick using a Leica 1850 cryotome. Slices contained the regions of cortex, hippocampus, and other regions known to contain 5-HT1A receptors. Brain slices were stored at −20° C. Brain slices were preincubated in 50 mM Tris-HCl buffer (pH 7.4) for 10 mins. The slices were then incubated with 130-148 kBq/mL of ^18F-mefway at 37° C. for 1 hr. […] After incubation, slides were washed twice (one minute for both washes) with ice-cold buffer. Slides were then quickly dipped in cold deionized water, air dried, and exposed to a phosphor screen for 24 hours. The autoradiographs were generated using the Phosphor Cyclone Imager (Packard Instruments Co., Boston Mass.). The amount of binding was evaluated in digital light units (DLU/mm^2) using OptiQuant accusation and analysis program (Packard Instruments Co.) Autoradiographs were quantified using a computer-based image analysis system (OptiQuant Version 4.0 Packard Instruments Co., Boston Mass.)."}, "5HT1a receptor [6]": {"biological_target": "T3, 5HT1a receptor (Mus musculus, UniProt Q64264)", "T3 construct": "from tissue", "T3 sequence (Q64264 1-421)": "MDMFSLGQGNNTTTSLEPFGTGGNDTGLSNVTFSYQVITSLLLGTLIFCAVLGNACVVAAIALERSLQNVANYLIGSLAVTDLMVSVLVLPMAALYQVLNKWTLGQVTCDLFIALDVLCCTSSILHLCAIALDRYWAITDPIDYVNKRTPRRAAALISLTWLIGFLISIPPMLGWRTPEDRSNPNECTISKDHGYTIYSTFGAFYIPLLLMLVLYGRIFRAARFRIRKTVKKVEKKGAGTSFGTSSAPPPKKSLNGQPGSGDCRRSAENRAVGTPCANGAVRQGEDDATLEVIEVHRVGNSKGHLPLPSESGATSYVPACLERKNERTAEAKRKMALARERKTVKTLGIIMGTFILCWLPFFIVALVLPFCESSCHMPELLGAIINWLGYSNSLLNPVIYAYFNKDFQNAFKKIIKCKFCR", "experiment": "trans-^18F-mefway binding in transgenic mouse models of Alzheimer's disease", "conditions": "transgenic mouse models of Alzheimer's disease (data not shown)", "text": "(§1) Binding of trans-^18F-mefway was evident in several 5HT1A receptor-rich regions, including hippocampus and cortex. Using cerebellum as a reference region, rat brain slices gave ratios of hippocampus/cerebellum=55 and cortex/cerebellum=17. Studies in transgenic mouse models of Alzheimer's disease show >90% loss in 5HT1a receptor binding (data not shown)."}, "5HT1A receptor [7]": {"biological_target": "T2, 5HT1A receptor", "experiment": "Rodent studies with trans-^18F-mefway, rat brain slices", "format": "binding", "conditions": "cerebellum as reference region", "text": "as §1"}},
  "note": "Several values for one entry are separate records, joined by “and”; a condition that tells them apart may be missing. Equal entries are not always repeated.",
  "data": [
    {"compound": "O=C(O)C1CCC(C[18F])CC1", "note": "(stereo not shown) [^18F-4-fluoromethylcyclohexane carboxylic acid]", "values": [
      {"measurement": "plateau of acid metabolite (aqueous fraction) in plasma", "setting": "[1]; after 50 mins post-injection", "value": "50-60%"}
    ]},
    {"compound": "COc1ccccc1N1CCN(CCN(C(=O)C2CCC(C[18F])CC2)c2ccccn2)CC1", "note": "(stereo not shown) [^18F-mefway, N-{2-[4-(2-methoxyphenyl)piperazinyl]ethyl}-N-(2-pyridyl)-N-(4-^18F-fluoromethylcyclohexane)carboxamide]", "values": [
      {"measurement": "^18F-mefway remaining unmetabolized in plasma", "setting": "[1]; 3 hours post injection", "value": "approximately 30%"},
      {"measurement": "defluorination", "setting": "[2]", "value": "virtually no deflourination"},
      {"measurement": "Lipophilicity (Log P)", "setting": "[3]", "value": "2.62±0.06"},
      {"measurement": "raphe ratio (to cerebellum)", "setting": "5-HT1A receptors; PET", "value": 3.5},
      {"measurement": "time of peak of ratios, second group of regions", "setting": "5-HT1A receptors; PET", "value": "around 80 mins"},
      {"measurement": "ratio of hippocampus to cerebellum", "setting": "5-HT1A receptors; PET, at pseudoequilibrium", "value": "exceeded 9"},
      {"measurement": "time to reach uptake level in various regions", "setting": "5-HT1A receptors; PET, brain uptake after i.v. administration", "value": "less than 2 mins"},
      {"measurement": "hippocampus to cerebellum ratio, peak", "setting": "5-HT1A receptors; PET, peak", "value": 9.7},
      {"measurement": "uptake level in various brain regions", "setting": "5-HT1A receptors; PET, reached in less than 2 mins", "value": "greater than 0.03 % injected dose/mL"},
      {"measurement": "ratio to cerebellum, thalamus, striatum and raphe", "setting": "5-HT1A receptors; PET, third group of regions", "value": "2-3.5"},
      {"measurement": "initial activity in the cerebellum still present", "setting": "5-HT1A receptors; after 3 hrs", "value": "about 6%"},
      {"measurement": "vital signs of the monkey", "setting": "5-HT1A receptors; anesthetized Rhesus monkey during PET study", "value": "did not show any unusual deviations from baseline values"},
      {"measurement": "hippocampus to cerebellum ratio at end of scan", "setting": "5-HT1A receptors; end of the 3 hr scan", "value": 8.4},
      {"measurement": "initial activity in the hippocampus still specifically bound", "setting": "5-HT1A receptors; end of the 3 hr scan", "value": "approx 60%"},
      {"measurement": "time of approach to pseudoequilibrium / plateau of ratio in receptor-rich regions", "setting": "5-HT1A receptors; hippocampus (and cortical hot spot), PET, 130 MBq i.v.", "value": "around 80 mins"}
    ]},
    {"compound": "COc1ccccc1N1CCN(CCN(C(=O)C2CCC(CF)CC2)c2ccccn2)CC1", "note": "(stereo not shown) [mefway, N-{2-[4-(2-methoxyphenyl)piperazinyl]ethyl}-N-(2-pyridyl)-N-(4-fluoromethylcyclo-hexane)-carboxamide]", "values": [
      {"measurement": "IC50", "setting": "5HT1A receptor [4]", "value": "32.1 nM and 25.7 nM"}
    ]},
    {"compound": "NCCc1c[nH]c2ccc(O)cc12", "note": "[serotonin]", "values": [
      {"measurement": "displaced ^18F-mefway binding in cortex", "setting": "5HT1A receptor [5]; cortex", "value": "> 70", "unit": "%"},
      {"measurement": "displaced ^18F-mefway binding in hippocampus", "setting": "5HT1A receptor [5]; hippocampus", "value": "> 85", "unit": "%"}
    ]},
    {"compound": "COc1ccccc1N1CCN(CCN(C(=O)C2CCC(CF)CC2)c2ccccn2)CC1", "note": "(stereo not drawn) [trans-^18F-mefway]", "values": [
      {"measurement": "loss in 5HT1a receptor binding", "setting": "5HT1a receptor [6]", "value": "> 90", "unit": "%"},
      {"measurement": "cortex/cerebellum ratio", "setting": "5HT1A receptor [7]", "value": 17},
      {"measurement": "hippocampus/cerebellum ratio", "setting": "5HT1A receptor [7]", "value": 55}
    ]}
  ]
}
